These results are taken from patent publication US20110117125A1, “COMPOSITIONS AND METHODS FOR THE DELIVERY OF NUCLEIC ACIDS” (TEKMIRA PHARMACEUTICALS CORPORATION, priority 2008, published 2011).

The conditions of data set [1]: ODN 14 compared with ODN 1; cited from earlier work.
Another data set relates to Factor VII. Briefly: Factor VII knockdown in mice by FVII siRNA lipid particles. It is filed as in vivo. The settings on record: 40/10/40/10 aminolipid/DSPC/Chol/PEG-S-DMG, IV, C57BL/6 mice, 24 hours post-injection. As for the experimental part: Factor VII (FVII), a prominent protein in the coagulation cascade, is synthesized in the liver (hepatocytes) and secreted into the plasma. FVII levels in plasma can be determined by a simple, plate-based colorimetric assay. As such, FVII represents a convenient model for determining siRNA-mediated downregulation of hepatocyte-derived proteins, as well as monitoring plasma concentrations and tissue distribution of the nucleic acid lipid particles and siRNA.
FVII activity was evaluated in FVII siRNA-treated animals at 24 hours after intravenous (bolus) injection in C57BL/6 mice. FVII was measured using a commercially available kit (Biophen FVII Kit™; Aniara Corp., Mason, Ohio), following the manufacturer's instructions at a microplate scale. FVII reduction was determined against untreated control mice, and the results were expressed as % Residual FVII. […]
The MTD for these studies was set as the lowest dose causing >7% decrease in body weight and a>200-fold increase in alanine aminotransferase (ALT), a clinical chemistry marker with good specificity for liver damage in rodents. The ED50 was determined from FVII dose-activity curves.
The ability of various lipid formulations to knockdown Factor VII expression was determined in a liver model using Factor VII siRNA, in order to evaluate the impact of aminolipid linker chemistry. […]

With “5′-AACC GTT GAG GGG CAT-3′ (DNA AACCGTTGAGGGGCAT; DNA, backbone and methylation of C not given here) [ODN 14]”, in data set [1], the “immunostimulatory / biological activity” value was “ODN 14 is a 15-mer oligonucleotide and ODN 1 is the same oligonucleotide having a thymidine added onto the 5′ end making ODN 1 into a 16-mer. No difference in biological activity between ODN 14 and ODN 1 has been detected and both exhibit similar immunostimulatory activity (Mui et al., 2001)”.

Regarding “5′-TAACGTTGAGGGGCAT-3 (DNA, backbone and methylation of C not given here) [ODN 1]”, the “immunostimulatory / biological activity” value in data set [1] is “ODN 14 is a 15-mer oligonucleotide and ODN 1 is the same oligonucleotide having a thymidine added onto the 5′ end making ODN 1 into a 16-mer. No difference in biological activity between ODN 14 and ODN 1 has been detected and both exhibit similar immunostimulatory activity (Mui et al., 2001)”.

For `CCCCC/C=C\C/C=C\CCCCCCCCC1(CCCCCCCC/C=C\C/C=C\CCCCC)OCC(CN(C)C)O1` (stereo not shown) [DLin-K-DMA, 2,2-Dilinoleyl-4-dimethylaminomethyl-[1,3]-dioxolane], in the data set on Factor VII, the “improvement of dose (mg/kg) to achieve 50% Factor VII reduction versus ester linkage (DLinDAP lipid)” value was “approximately 100 -fold” and the “improvement of dose (mg/kg) to achieve 50% Factor VII reduction versus ether linkage (DLinDMA lipid)” value is listed as “approximately 10 -fold”.
